Conditions: 101.33 kPa, Liquid; for viscosity: Concentric cylinders viscometry; for mass density: Vibrating tube method

CC(CC(C)(C)C)CP(=O)([O-])CC(C)CC(C)(C)C.CCCCCCCCCCCCCC[P+](CCCCCC)(CCCCCC)CCCCCC
Conditions	mass density [kg/m3]	viscosity [mPa·s]
278.15 K	897.3	5574.5
283.15 K	894.3	3805.5
288.15 K	891.3	2675.3
293.15 K	888.3	1918.2
298.15 K	885.3	1401.7
303.15 K	882.3	1041.5
308.15 K	879.3	785.77
313.15 K	876.3	601.35
318.15 K	873.4	466.24
323.15 K	870.4	365.83
328.15 K	867.5	290.28
333.15 K	864.6	232.76
338.15 K	861.7	188.43
343.15 K	858.9	153.95
348.15 K	856	126.77
353.15 K	853.2	105.22
358.15 K	850.3	87.92
363.15 K	847.5	73.91

CCCCCCCCCCCCCC[P+](CCCCCC)(CCCCCC)CCCCCC.O=S(=O)([N-]S(=O)(=O)C(F)(F)F)C(F)(F)F
Conditions	mass density [kg/m3]	viscosity [mPa·s]
278.15 K	1081.1	1246.2
283.15 K	1077.4	871.17
288.15 K	1073.6	622.45
293.15 K	1069.8	453.64
298.15 K	1066.1	336.74
303.15 K	1062.4	254.24
308.15 K	1058.8	195.04
313.15 K	1055.2	151.85
318.15 K	1051.6	119.85
323.15 K	1048	95.81
328.15 K	1044.4	77.55
333.15 K	1040.9	63.47
338.15 K	1037.3	52.49
343.15 K	1033.7	43.84
348.15 K	1030.2	36.95
353.15 K	1026.6	31.41
358.15 K	1023.1	26.91

CCCCCCCCCCCCCC[P+](CCCCCC)(CCCCCC)CCCCCC.N#C[N-]C#N [tetradecyl(trihexyl)phosphonium dicyanamide]
Conditions	mass density [kg/m3]	viscosity [mPa·s]
278.15 K	910.8	1646.8
283.15 K	907.8	1144.9
288.15 K	904.9	816.36
293.15 K	901.9	592.93
298.15 K	899	438.57
303.15 K	896.1	329.68
308.15 K	893.3	251.71
313.15 K	890.4	195
318.15 K	887.6	153.15
323.15 K	884.8	121.78
328.15 K	882	97.96
333.15 K	879.2	79.73
338.15 K	876.4	65.56
343.15 K	873.7	54.43
348.15 K	870.9	45.6
353.15 K	868.1	38.53
358.15 K	865.3	32.85
363.15 K	862.6	28.2

CCCCCCCCCCCCCC[P+](CCCCCC)(CCCCCC)CCCCCC.[Br-] [tetradecyltrihexylphosphonium bromide]
Conditions	mass density [kg/m3]	viscosity [mPa·s]
278.15 K	967.5	16955
283.15 K	964.4	10457
288.15 K	961.3	6688.3
293.15 K	958.2	4421.3
298.15 K	955.2	2988.4
303.15 K	952.1	2065.2
308.15 K	949	1456.3
313.15 K	946	1046.7
318.15 K	942.9	764.04
323.15 K	939.8	568.06
328.15 K	936.7	428.98
333.15 K	933.7	328.56
338.15 K	930.7	255.03
343.15 K	927.6	200.46
348.15 K	924.6	159.44
353.15 K	921.7	128.21
358.15 K	918.7	104.15
363.15 K	915.7	85.44
